From patent US20240133870A1, “COMBINED TREATMENT FOR CANCER” (Yeda Research and Development Co. Ltd., priority 2021, published 2024)

How the values were obtained:
[1] = tested on: UACC62 melanoma BRAF (V600E) cell line; experiment: Human and mouse factor mediated resistance to vemurafenib in vitro; assay type: cell-based; settings: for factor-mediated resistance to vemurafenib: FGF2 25 ng/ml
Protocol: P-value of the rScore abrogation following the addition of FGFRi was calculated by two-sided t-test. ** P<0.01.

human NSCLC tumor biopsy = experiment: EVOC of NSCLC patient biopsies, viability; assay type: cell-based; settings: treatment-naïve patient; osimertinib 4 μM alone
Text: Error bars represent standard error. […] Scale bar represents 50 μm. […] Error bars represent standard error. […] Scale bar represents 50 μm.
Scale bar represents 50 μm. […] Scale bar represents 50 μm. […] Scale bar represents 50 μm.

[2] = tested on: SK-MEL-5 BRAF (V600E) melanoma cells; experiment: Co-culture of stroma (WI-38 or HS-5) and cancer cells; assay type: cell-based, human
Protocol: SK-MEL-5 BRAF (V600E) melanoma cells were co-cultured with the lung-derived stromal cell line WI-38 or with the bone marrow-derived stromal cell line HS-5 with or without vemurafenib (4 μM). […] Vehicle—DMSO, EGFRi—gefitinib (0.1 μM), EGFRi/HER2i—lapatinib (10 nM), METi—crizotinib (0.1 μM), FGFRi—AZD4547 (50 nM), NFkB/TNFRi—CAPE (10 μM), TGFBRi-LY2109761 (0.5 μM), gp130i—SC144 (1 nM). […] Error bars represent standard error. […] Error bars represent standard error. […] Human BRAF (V600E) melanoma cell lines UACC62 or G361 were used to generate xenograft tumor models in various tissues of nude mice. When tumors reached a volume of 500-700 μmm^3, they were resected, sliced, and cultured ex-vivo in the presence of different drug combinations or DMSO control. Following 4 days of drug treatment, slices were fixed, embedded in paraffin blocks, and subjected to immunohistochemistry, using anti-pERK antibody, or to immuno-fluorescence, using anti-pFGFR1 antibody. BRAFi (vemurafenib, 4 μM), FGFRi (AZD4547, 2 μM). Scale bar represents 50 μm.
Four hours later, the melanoma BRAF (V600E) mutated cell line SK-MEL-5 was seeded on top of the stromal cells at a concentration of 1700 cells per well, or seeded without stroma. […] Concentrations of the inhibitors were based on dose curves with SK-MEL-5. For each inhibitor of potential mechanism of resistance, the maximal concentration with minimal effect (toxicity) on cell growth was selected (Cmax).
To compare rScore value of stroma-mediated resistance with or without a given inhibitor, the rScore values of each inhibitor in the presence of stroma, was calculated. As a reduction in rScore may stem from mere toxicity of the inhibitor, rather than the abrogation of the stroma mediated resistance, each inhibitor rScore was penalized by its toxicity.
rScoreinhibitor=rScoreinhibitor+(rScorestroma−rScoreinhibitor)*tOxicitY(Cmax)inhibitor

[3] = tested on: BRAF (V600E) melanoma cell lines; experiment: High-throughput secretome screen of GFP-labeled cells (rScore, bScore, ranks); assay type: cell-based, human; settings: for effect on resistance to BRAF/MEK inhibition (rScore sorted, 297 factors): UACC62 cell line
Protocol: Cell lines—All cell lines (Table 1 hereinbelow) were cultured in DMEM supplemented with 100 units/ml Penicillin and Streptomycin, 2 μmM Glutamine, 1 μmM Pyruvate and 10% FCS, and maintained in a humidified incubator at 37° C. and 5% CO2. Cells were routinely tested for Mycoplasma contamination by PCR. To generate stable cell lines constitutively expressing GFP, cells were infected with lentivirus bearing plasmid pLEX_TRC206 and sorted by FACS to enrich for GFP positive population. For the in-vitro experiments, human cancer cell lines which constitutively expressed GFP were treated with various cytotoxic and targeted drugs (see Table 1 hereinbelow); and the effect of different secreted factors (Table 2 hereinbelow) on the innate resistance to a drug based on the cells' GFP level was determined.
High throughput in-vitro screens—For high-throughput screens or drug dose curves, cells were counted by Vi-Cell XR (Beckman coulter). Cells were seeded on 384 wells plates (Corning, 3712) using the EL406 washer dispenser (BioTek). Liquid handling of medium and drugs was effected by CyBi (WellFlex vario, CyBio). GFP fluorescence of cells was measured at 477/517 nm (excitation/emission) using Cytation3 (BioTek). Due to fluorescence reading bias at plate margins and corners, these margins were discarded for analysis.
High-throughput secretome screens—To screen for the effect of secreted factors on the response of cell lines to different drugs, the following seven-days procedure was performed. On day 0, GFP expressing cells were seeded at 1500-2000 cells per well on 384-wells plates (Corning, 3712), depending on the cell line's proliferation rate. Each plate was seeded with one cell line. At day 1, each plate was treated with the secretome library (Table 2 hereinabove), one well per factor. Immediately afterwards, each plate was treated either with a drug (Table 1 hereinabove) at the EC90 concentration or with DMSO control. The CyBi liquid handler was used to treat each plate with a drug and the secretome library as well as to replace the medium, drug and secreted factors following 3 days of incubation (day 4). Cell fluorescence was read at days 1, 4 and 7 by Cytation3, and for some of the experiments at day 6 as well. Wells of interest were imaged at day 7 using the Operetta (PerkinElmer).
(2) Based on observations, the plate area spanning rows 4-13 and columns 4-21 was hardly affected by plate margins biases. This area is referred to herein as plate core. To control for row specific and column specific biases, plate outliers (Zscore>4 or Zscore<−4) and edges were masked. Next, to capture row and column (col) biases for the i-th row and the j-th column, the bias factor was calculated:
Upon QC completion, 199 experiment plates and 79 control (DMSO) plates were left for further analysis. • 4—Scoring methods-A GFP value for wells without secretome factors was obtained by averaging over the plate internal control wells. Those wells contained the solvents used in the secretome library. pScore: The effect of the secreted factors on proliferation under DMSO was evaluated using pScore (proliferation score). Values were given in percent units.
rScore: The effect of the secreted factors on resistance to anti-cancer drugs was evaluated using rScore (rescue score). rScore was assigned to a given factor under two conditions: • 1. drug effect was >30% (residual drug growth<0.7) • 2. proliferation ratio between factor treated and untreated cells in the presence of drug was higher than one:
rSscore=S−S*residual drug growth
Based on manual inspection of the rScore distribution across the data, the threshold for a potential effect on drug resistance was set to 0.2 (FIGS. 8A-D).
(*) Negative values were considered as zero. […] Groups with less than 4 experiments were discarded, finally resulting in 13 groups of experiments (FIG. 1E). […]

[4] = 80 experiments of BRAF (V600E) mutated melanoma cell lines treated with BRAF/MEK inhibitors
[5] = 80 experiments of BRAF (V600E) mutated melanoma cell lines treated with BRAF/MEK inhibitors, in multiple experiments
[6] = vemurafenib 2 μM, mTNF 50 ng/ml

Molecule: FC(F)(F)c1nnc2c(Sc3ccccc3)nc3ccc(Cl)cc3n12 [R7050, reference compound]
- toxicity to UACC62 ([1]; all concentrations tested): not toxic
- abrogation of mouse TNF mediated resistance ([1]; vemurafenib 2 μM, mTNF 50 ng/ml, range of concentrations): does not abrogate the mouse TNF mediated resistance

Molecule: C=CC(=O)Nc1cc(Nc2nccc(-c3cn(C)c4ccccc34)n2)c(OC)cc1N(C)CCN(C)C [osimertinib]
- cancer cell viability (human NSCLC tumor biopsy): did not affect cancer cell viability

Molecule: CCCS(=O)(=O)Nc1ccc(F)c(C(=O)c2c[nH]c3ncc(-c4ccc(Cl)cc4)cc23)c1F [vemurafenib]
- rScore of stroma-conferred resistance ([2]; co-culture with bone-marrow derived stromal cell line HS-5): > 0.2
- rScore of stroma-conferred resistance ([2]; co-culture with lung-derived stromal cell line WI-38): > 0.2

Molecule: FGF2: human FGF2, recombinant secreted factor, FGFR ligand
- rank by rScore values (resistance) [3, 4]: 3
- rScore [3, 5]: above 0.2
- effect on resistance to BRAF/MEK inhibition (rScore sorted, 297 factors) [3]: strongest effect on resistance
- factor-mediated resistance to vemurafenib [1, 6]: mediated resistance to vemurafenib

B1: ACHE: acetylcholinesterase (protein, UniProt P22303 32-614, looked up)
Acetylcholinesterase: EGREDAELLVTVRGGRLRGIRLKTPGGPVSAFLGIPFAEPPMGPRRFLPPEPKQPWSGVVDATTFQSVCYQYVDTLYPGFEGTEMWNPNRELSEDCLYLNVWTPYPRPTSPTPVLVWIYGGGFYSGASSLDVYDGRFLVQAERTVLVSMNYRVGAFGFLALPGSREAPGNVGLLDQRLALQWVQENVAAFGGDPTSVTLFGESAGAASVGMHLLSPPSRGLFHRAVLQSGAPNGPWATVGMGEARRRATQLAHLVGCPPGGTGGNDTELVACLRTRPAQVLVNHEWHVLPQESVFRFSFVPVVDGDFLSDTPEALINAGDFHGLQVLVGVVKDEGSYFLVYGAPGFSKDNESLISRAEFLAGVRVGVPQVSDLAAEAVVLHYTDWLHPEDPARLREALSDVVGDHNVVCPVAQLAGRLAAQGARVYAYVFEHRASTLSWPLWMGVPHGYEIEFIFGIPLDPSRNYTAEEKIFAQRLMRYWANFARTGDPNEPRDPKAPQWPPYTAGAQQYVSLDLRPLEVRRGLRAQACAFWNRFLPKLLSATDTLDEAERQWKAEFHRWSSYMVHWKNQFDHYSKQDRCSDL
- synergism with BRAF and MEK inhibition ([3]; multiple melanoma cell lines): synergistic effect

B2: TGFB3: Transforming Growth Factor Beta 3 (protein, UniProt P10600 301-412, looked up)
Transforming growth factor …: ALDTNYCFRNLEENCCVRPLYIDFRQDLGWKWVHEPKGYYANFCSGPCPYLRSADTTHSTVLGLYNTLNPEASASPCCVPQDLEPLTILYYVGRTPKVEQLSNMVVKSCKCS
- rank by bScore values (synergism) [3, 4]: −3
- bScore [3, 5]: below −0.15

B3: IL1A: secreted factor of the secretome library (protein, UniProt P01583 113-271, looked up)
Interleukin-1 alpha: SAPFSFLSNVKYNFMRIIKYEFILNDALNQSIIRANDQYLTAAALHNLDEAVKFDMGAYKSSKDDAKITVILRISKTQLYVTAQDEDQPVLLKEMPEIPKTITGSETNLLFFWETHGTKNYFTSVAHPNLFIATKQDYWVCLAGGPPSITDFQILENQA
- effect on resistance to BRAF/MEK inhibition (rScore sorted, 297 factors) [3]: strongest effect on resistance

B4: CCL4: secreted factor of the secretome library (protein, UniProt P13236 24-92, looked up)
C-C motif chemokine 4: APMGSDPPTACCFSYTARKLPRNFVVDYYETSSLCSQPAVVFQTKRSKQVCADPSESWVQEYVYDLELN
- effect on resistance to BRAF/MEK inhibition (rScore sorted, 297 factors) [3]: strongest effect on resistance

B5: mFGF2: mouse FGF2 (protein, UniProt P15655 10-154, looked up)
Fibroblast growth factor 2: PALPEDGGAAFPPGHFKDPKRLYCKNGGFFLRIHPDGRVDGVREKSDPHVKLQLQAEERGVVSIKGVCANRYLAMKEDGRLLASKCVTEECFFFERLESNNYNTYRSRKYSSWYVALKRTGQYKLGSKTGPGQKAILFLPMSAKS
- factor-mediated resistance to vemurafenib [1, 6]: mediated resistance to vemurafenib

B6: LTA: lymphotoxin alpha (protein, UniProt P01374 35-205, looked up)
Lymphotoxin-alpha: LPGVGLTPSAAQTARQHPKMHLAHSTLKPAAHLIGDPSKQNSLLWRANTDRAFLQDGFSLSNNSLLVPTSGIYFVYSQVVFSGKAYSPKATSSPLYLAHEVQLFSSQYPFHVPLLSSQKMVYPGLQEPWLHSMYHGAAFQLTQGDQLSTHTDGIPHLVLSPSTVFFGAFAL
- effect on resistance to BRAF/MEK inhibition (rScore sorted, 297 factors) [3]: strongest effect on resistance
